Literature values as cited in patent US20210121408A1, “Methods of Administering Cannabinoid to People Diagnosed With HIV” (priority 2019, published 2021).

**Q.** Which “solubility in ethanol, acetone, chloroform and light petroleum” value (ethanol, acetone, chloroform and light petroleum) does the source give for `CCCCCc1cc(O)c2c(c1)OC(C)(C)[C@@H]1CCC(C)=C[C@@H]21` [THC, delta-9-tetrahydrocannabinol] here?
**A.** Its value is “soluble”.

**Q.** What about the solubility in water (water) of the same compound?
**A.** The solubility in water was “insoluble”.
